Laboratory results reported in US20250161273A1, “PHARMACEUTICAL COMPOSITION COMPRISING DIPHENYLDIAZOLE DERIVATIVES AND METHODS OF USE” (MODAG GMBH, priority 2022, published 2025).
Where two headings read alike, the source gives them in different places.

Test: phase 1 study in patients with mild to moderate Parkinson's disease (PK, safety)
Type: in vivo, human
Conditions: for AR AUC (accumulation ratio, geometric mean): AUC(0-tau); for Frel AUC(0-24) / Frel Cmax: Day 9 fed vs Day 7 QD fasted; for concentration at 3 h: po; for Cmax / Tmax / AUC / concentration at 24 h / Tmax at 7 days / half-life at 7 days / half-life / AUC(0-t) / concentration at 12 h / AUC(0-inf): oral; for Cmax: read-out: Cmax (geometric mean); for AUC: read-out: AUC(0-tau) (geometric mean); for AUC(0-inf): read-out: AUC(0-inf) (geometric mean)
Text: Study Title: A Single Part Study to Assess the Safety, Tolerability, Pharmacokinetics and Pharmacodynamics of Multiple Ascending Oral Doses of anle138b, and to Characterize the Effect of Food on the Pharmacokinetics of anle138b in Patients with Mild to Moderate Parkinson's Disease.
This was a two-center, double-blind, randomised, placebo-controlled study that enrolled twenty two (22) participants in cohorts (i.e. regimens) A-C. All completed the study per protocol. After completion of Cohorts A to C it was decided to add Cohorts D and E of 24 subjects. Cohort D expanded sample size of previous dosing regiments 150 mg and 300 mg QD and Cohort E administration of anle138b 300 mg for 28 days, under non fasted conditions.
Drug product used is described in section 1.3, supra, placebo was vehicle in capsule. Subjects were between 50 and 80 years of age with a diagnosis of idiopathic PD as defined by the Movement Disorders Society criteria (either fulfilling criteria for “Clinically Established PD” or for “Clinically Probable PD”). They had to present with Hoehn and Yahr stage I-III (i.e. able to walk unaided), and stable medication for PD for 1 month prior to inclusion and anticipated over the study period. The subjects were randomly assigned to receive one of three drug regimens, A, B or C, as follows: • Regimen A—150 mg (5×30 mg) anle138b oral capsules or matching placebo QD, for 7 consecutive days in the fasted state, followed by a single administration of 150 mg anle138b oral capsule or matching placebo on Day 9 in the fed state, • Regimen B—300 mg (10×30 mg) anle138b oral capsules or matching placebo QD, for 7 consecutive days in the fasted state, followed by a single administration of 300 mg anle138b oral capsule (10×30 mg capsules) or matching placebo on Day 9 in the fed state, • Regimen C—150 mg (5×30 mg) anle138b oral capsules or matching placebo BID (total 300 mg daily), […]
Primary endpoints provided safety and tolerability information for the test product by assessing: AEs, vital signs, ECGs, physical examinations and laboratory safety tests, and to provide additional safety and tolerability information for the test product taken also in the fed state by assessing: AEs, vital signs, ECGs, physical examinations and laboratory safety tests.
Secondary endpoints provided PK information for the test product in PD patients by assessing plasma exposure under fast and fed conditions.

[1] = PD patients, Regimen A 150 mg, Day 1, fasted
[2] = PD patients, Regimen B 300 mg, Day 1, fasted

Brc1cccc(-c2cc(-c3ccc4c(c3)OCO4)n[nH]2)c1 [anle138b, 3-(1,3-benzodioxol-5-yl)-5-(3-bromophenyl)-1H-pyrazole]
AR Cmax (accumulation ratio, geometric mean) (PD patients, Regimen A 150 mg QD, Day 7): 0.346
AR AUC (accumulation ratio, geometric mean) (PD patients, Regimen A 150 mg QD, Day 7, tau 24 h): 0.371
T1/2, individual subject values (PD patients, Regimen A 150 mg QD, Day 7, n = 2): 16.25 h
maximum individual AUC(0-24) as % of the exposure limit in the protocol [1]: ~6.19%
maximum individual Cmax as % of the exposure limit in the protocol [1]: approximately 24.9%
Frel AUC(0-24) (PD patients, Regimen A 150 mg): 132%
Frel Cmax (PD patients, Regimen A 150 mg): 104%
Tmax (median) (PD patients, Regimen B 300 mg QD (row prints fed, title fasted state), Day 7): 1.6 h
AR Cmax (accumulation ratio, geometric mean) (PD patients, Regimen B 300 mg QD, Day 7): 0.428
AR AUC (accumulation ratio, geometric mean) (PD patients, Regimen B 300 mg QD, Day 7, tau 24 h): 0.351
maximum individual AUC(0-24) as % of the exposure limit in the protocol [2]: ~8.4%
maximum individual Cmax as % of the exposure limit in the protocol [2]: ~75.8%
Frel AUC(0-24) (PD patients, Regimen B 300 mg): 109%
Frel Cmax (PD patients, Regimen B 300 mg): 71.4%
maximum individual Cmax as % of the exposure limit in the protocol (PD patients, Regimen C 150 mg BID, Day 1, fasted): ~26.4%
maximum individual AUC as % of the exposure limit in the protocol (PD patients, Regimen C 150 mg BID, Day 1, fasted, AUC(0-12) vs limit based on AUC(0-24)): ~4.94%
AR Cmax (accumulation ratio, geometric mean) (PD patients, Regimen C 150 mg BID, Day 7): 0.333
AR AUC (accumulation ratio, geometric mean) (PD patients, Regimen C 150 mg BID, Day 7, tau 12 h): 0.299
safety and tolerability (in words) (PD patients, doses up to 300 mg): safe and well tolerated
concentration at 3 h (human, CSF, 300 mg, PD patients, multiple QD oral doses of 300 mg, fasted, 3 h post-dose on Day 5, read-out: CSF anle138b concentration (geometric mean)): 0.319 ng/mL
Kp at 3 h (human, CSF/plasma, PD patients, multiple QD oral doses of 300 mg, fasted, 3 h post-dose on Day 5, read-out: CSF/plasma anle138b concentration ratio (geometric mean)): 0.0024
Cmax (human, plasma, 150 mg, PD patients, Regimen A 150 mg QD (row prints fed, title fasted state), Day 1): ~462 ng/mL
Tmax (human, plasma, 150 mg, PD patients, Regimen A 150 mg QD (row prints fed, title fasted state), Day 1, read-out: Tmax (median)): 1.25 h
Tmax (human, plasma, 150 mg, PD patients, Regimen A 150 mg QD (row prints fed, title fasted state), Day 1, read-out: Tmax (range)): 1 to 1.5 h
AUC (human, plasma, 150 mg, PD patients, Regimen A 150 mg QD (row prints fed, title fasted state), Day 1, tau 24 h): ~1040 ng·h/mL
concentration at 24 h (human, plasma, 150 mg, PD patients, Regimen A 150 mg QD (row prints fed, title fasted state), Day 1, tau 24 h, read-out: Ctau (geometric mean)): 3.76 ng/mL
Cmax (human, plasma, 150 mg, PD patients, Regimen A 150 mg QD (row prints fed, title fasted state), Day 7): ~160 ng/mL
Tmax at 7 days (human, plasma, 150 mg, PD patients, Regimen A 150 mg QD (row prints fed, title fasted state), Day 7, read-out: Tmax (median)): 1 h
Tmax at 7 days (human, plasma, 150 mg, PD patients, Regimen A 150 mg QD (row prints fed, title fasted state), Day 7, read-out: Tmax (range)): 1 to 2 h
AUC (human, plasma, 150 mg, PD patients, Regimen A 150 mg QD (row prints fed, title fasted state), Day 7, tau 24 h): ~388 ng·h/mL
concentration at 24 h (human, plasma, 150 mg, PD patients, Regimen A 150 mg QD (row prints fed, title fasted state), Day 7, tau 24 h, read-out: Ctau (geometric mean)): 1.86 ng/mL
half-life at 7 days (human, plasma, 150 mg, PD patients, Regimen A 150 mg QD, Day 7, n = 2, read-out: T1/2, individual subject values (converted)): 17.1 h
half-life (human, plasma, 150 mg, PD patients, Regimen A 150 mg single dose on Day 9, fed state, n = 3, read-out: T1/2 (geometric mean) (converted)): 15.9 h
AUC(0-t) (human, plasma, 150 mg, PD patients, Regimen A 150 mg single dose on Day 9, fed state, read-out: AUC(0-24) (geometric mean)): 513 ng·h/mL
AUC(0-t) (human, plasma, 150 mg, PD patients, Regimen A 150 mg single dose on Day 9, fed state, read-out: AUC(0-last) (geometric mean)): 542 ng·h/mL
concentration at 24 h (human, plasma, 150 mg, PD patients, Regimen A 150 mg single dose on Day 9, fed state, read-out: C24 (geometric mean)): 1.87 ng/mL
Cmax (human, plasma, 150 mg, PD patients, Regimen A 150 mg single dose on Day 9, fed state): 167 ng/mL
Tmax (human, plasma, 150 mg, PD patients, Regimen A 150 mg single dose on Day 9, fed state, read-out: Tmax (median)): 3 h
Tmax (human, plasma, 150 mg, PD patients, Regimen A 150 mg single dose on Day 9, fed state, read-out: Tmax (range)): 1.5 to 4 h
Cmax (human, plasma, 150 mg, PD patients, Regimen C 150 mg BID, fast, Day 1): ~546 ng/mL
Tmax (human, plasma, 150 mg, PD patients, Regimen C 150 mg BID, fast, Day 1, read-out: Tmax (median)): 1 h
Tmax (human, plasma, 150 mg, PD patients, Regimen C 150 mg BID, fast, Day 1, read-out: Tmax (range)): 1 to 2 h
AUC (human, plasma, 150 mg, PD patients, Regimen C 150 mg BID, fast, Day 1, tau 12 h): ~993 ng·h/mL
concentration at 12 h (human, plasma, 150 mg, PD patients, Regimen C 150 mg BID, fast, Day 1, tau 12 h, read-out: Ctau (geometric mean)): 7.41 ng/mL
Cmax (human, plasma, 150 mg, PD patients, Regimen C 150 mg BID, fast, Day 7): ~182 ng/mL
half-life at 7 days (human, plasma, 150 mg, PD patients, Regimen C 150 mg BID, fast, Day 7, read-out: T1/2 (geometric mean) (converted)): 14.1 h
Tmax at 7 days (human, plasma, 150 mg, PD patients, Regimen C 150 mg BID, fast, Day 7, read-out: Tmax (median)): 1 h
Tmax at 7 days (human, plasma, 150 mg, PD patients, Regimen C 150 mg BID, fast, Day 7, read-out: Tmax (range)): 1 to 1.5 h
AUC (human, plasma, 150 mg, PD patients, Regimen C 150 mg BID, fast, Day 7, tau 12 h): ~297 ng·h/mL
concentration at 12 h (human, plasma, 150 mg, PD patients, Regimen C 150 mg BID, fast, Day 7, tau 12 h, read-out: Ctau (geometric mean)): 4.05 ng/mL
half-life (human, plasma, 150 mg, patient, 150 mg once daily for 7 consecutive days, fed conditions as printed, day 7, read-out: T½ of anle138b (clause 14) (converted)): ~11.7 h
Cmax (human, plasma, 300 mg, PD patients, Regimen B 300 mg QD (row prints fed, title fasted state), Day 1): ~933 ng/mL
Tmax (human, plasma, 300 mg, PD patients, Regimen B 300 mg QD (row prints fed, title fasted state), Day 1, read-out: Tmax (median)): 1.5 h
Tmax (human, plasma, 300 mg, PD patients, Regimen B 300 mg QD (row prints fed, title fasted state), Day 1, read-out: Tmax (range)): 1 to 4 h
AUC (human, plasma, 300 mg, PD patients, Regimen B 300 mg QD (row prints fed, title fasted state), Day 1, tau 24 h): ~2500 ng·h/mL
concentration at 24 h (human, plasma, 300 mg, PD patients, Regimen B 300 mg QD (row prints fed, title fasted state), Day 1, tau 24 h, read-out: Ctau (geometric mean)): 6.81 ng/mL
Cmax (human, plasma, 300 mg, PD patients, Regimen B 300 mg QD (row prints fed, title fasted state), Day 7): ~365 ng/mL
Tmax at 7 days (human, plasma, 300 mg, PD patients, Regimen B 300 mg QD (row prints fed, title fasted state), Day 7, read-out: Tmax (median)): 1.5 h
Tmax at 7 days (human, plasma, 300 mg, PD patients, Regimen B 300 mg QD (row prints fed, title fasted state), Day 7, read-out: Tmax (range)): 1 to 2 h
AUC (human, plasma, 300 mg, PD patients, Regimen B 300 mg QD (row prints fed, title fasted state), Day 7, tau 24 h): ~722 ng·h/mL
concentration at 24 h (human, plasma, 300 mg, PD patients, Regimen B 300 mg QD (row prints fed, title fasted state), Day 7, tau 24 h, read-out: Ctau (geometric mean)): 3.19 ng/mL
half-life at 7 days (human, plasma, 300 mg, PD patients, Regimen B 300 mg QD, Day 7, read-out: T1/2 (geometric mean) (converted)): 11.8 h
half-life (human, plasma, 300 mg, PD patients, Regimen B 300 mg single dose on Day 9, fed state, n = 4, read-out: T1/2 (geometric mean) (converted)): 13 h
AUC(0-t) (human, plasma, 300 mg, PD patients, Regimen B 300 mg single dose on Day 9, fed state, read-out: AUC(0-24) (geometric mean)): 795 ng·h/mL
AUC(0-t) (human, plasma, 300 mg, PD patients, Regimen B 300 mg single dose on Day 9, fed state, read-out: AUC(0-last) (geometric mean)): 831 ng·h/mL
concentration at 24 h (human, plasma, 300 mg, PD patients, Regimen B 300 mg single dose on Day 9, fed state, read-out: C24 (geometric mean)): 2.88 ng/mL
Cmax (human, plasma, 300 mg, PD patients, Regimen B 300 mg single dose on Day 9, fed state): 231 ng/mL
Tmax (human, plasma, 300 mg, PD patients, Regimen B 300 mg single dose on Day 9, fed state, read-out: Tmax (median)): 3 h
Tmax (human, plasma, 300 mg, PD patients, Regimen B 300 mg single dose on Day 9, fed state, read-out: Tmax (range)): 3 to 4 h
AUC(0-inf) (human, plasma, PD patients, Regimen A 150 mg single dose on Day 9, fed state, n = 3): 599 ng·h/mL
AUC(0-inf) (human, plasma, PD patients, Regimen B 300 mg single dose on Day 9, fed state, n = 4): 826 ng·h/mL
concentration at 3 h (human, plasma, 300 mg, PD patients, multiple QD oral doses of 300 mg, fasted, 3 h post-dose on Day 5, read-out: plasma anle138b concentration (geometric mean)): 133 ng/mL
